Assay results from the supplement of paper PMC11451515.

Key:
Settings in all cases: 48 h
[1] = system: P12-Ichikawa; assay: AUC of viability dose-response curve (% viability x log10 dose units); higher = less sensitive
How it was run: (§1)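 In 1536-well plates, leukemia cells adapted to each medium (500 or 1000 cells/well) were exposed for 48 h at 37°C to library compounds in DMSO across 11 threefold doses, 47 μM down to 0.79 nM. Viability was read by CellTiter-Glo One luminescence and normalised per plate to DMSO and cell-free wells. A four-parameter log-logistic fit over log10 doses was integrated by trapezoidal rule. This yielded the area under the curve, with over-full-viability curves scaled and quality-control failures dropped.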

[2] = system: NOMO1; assay: as above
How it was run: as §1

[3] = system: P12-Ichikawa; assay: cell viability relative to DMSO control; higher = less cytotoxic
How it was run: (§2)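 Viability values are per-plate percentages of DMSO wells, with background from cell-free wells. Library compounds in DMSO were pin-dosed, in an 11-point threefold series from 47 μM to 0.79 nM, onto NOMO1 or SEM (500 cells/well) or P12-Ichikawa (1000 cells/well) leukemia cells in 1536-well plates (5 μl). Those cells had been adapted for at least four passages in each medium, and CellTiter-Glo One luminescence was read after 48 h at 37°C.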

[4] = system: SEM cells; assay: as above
How it was run: as §2

[5] = system: NOMO1; assay: as above
How it was run: as §2

O=C(Cc1ccc(-c2ccc(OCCN3CCOCC3)cc2)cn1)NCc1ccccc1
AUC of viability dose-response curve
Settings | HPLM + 10% dialyzed FBS | RPMI 5 mM glucose + 10% FBS | RPMI 5 mM glucose + 10% dialyzed FBS
[1] | 200 | 205 | 222
[2] | 294 | 263 | 277

cell viability [%]
Settings | [3] | [4] | [5]
HPLM + 10% dialyzed FBS, 0.000781 µM | 107 | 96 | 118
HPLM + 10% dialyzed FBS, 0.00234 µM | 113 | 95.9 | 102
HPLM + 10% dialyzed FBS, 0.00702 µM | 114 | 106 | 123
HPLM + 10% dialyzed FBS, 0.0211 µM | 85.6 | 67.9 | 111
HPLM + 10% dialyzed FBS, 0.0632 µM | 36.1 | 28.9 | 43.7
HPLM + 10% dialyzed FBS, 0.19 µM | 17.3 | 22.9 | 41.9
HPLM + 10% dialyzed FBS, 0.569 µM | 14 | 21.6 | 43.8
HPLM + 10% dialyzed FBS, 1.71 µM | 13.2 | 20.8 | 53.7
HPLM + 10% dialyzed FBS, 5.12 µM | 10.3 | 18.9 | 52.5
HPLM + 10% dialyzed FBS, 15.4 µM | 9.64 | 15.2 | 56.6
HPLM + 10% dialyzed FBS, 46.1 µM | 11.6 | 10.5 | 40.6
RPMI 5 mM glucose + 10% FBS, 0.000781 µM | 114 | 79.9 | 124
RPMI 5 mM glucose + 10% FBS, 0.00234 µM | 114 | 84.5 | 122
RPMI 5 mM glucose + 10% FBS, 0.00702 µM | 123 | 87 | 117
RPMI 5 mM glucose + 10% FBS, 0.0211 µM | 97 | 57.9 | 128
RPMI 5 mM glucose + 10% FBS, 0.0632 µM | 40 | 18.9 | 71.9
RPMI 5 mM glucose + 10% FBS, 0.19 µM | 25.9 | 12.9 | 27.1
RPMI 5 mM glucose + 10% FBS, 0.569 µM | 15.6 | 14.8 | 33.2
RPMI 5 mM glucose + 10% FBS, 1.71 µM | 15.1 | 13.6 | 34.1
RPMI 5 mM glucose + 10% FBS, 5.12 µM | 10.4 | 12.2 | 32.5
RPMI 5 mM glucose + 10% FBS, 15.4 µM | 8.04 | 4.65 | 31.3
RPMI 5 mM glucose + 10% FBS, 46.1 µM | 8.38 | 2.89 | 33.7
RPMI 5 mM glucose + 10% dialyzed FBS, 0.000781 µM | 122 | 93.6 | 118
RPMI 5 mM glucose + 10% dialyzed FBS, 0.00234 µM | 118 | 90.8 | 108
RPMI 5 mM glucose + 10% dialyzed FBS, 0.00702 µM | 119 | 93.8 | 124
RPMI 5 mM glucose + 10% dialyzed FBS, 0.0211 µM | 112 | 70.8 | 112
RPMI 5 mM glucose + 10% dialyzed FBS, 0.0632 µM | 33.3 | 30.3 | 62.5
RPMI 5 mM glucose + 10% dialyzed FBS, 0.19 µM | 35 | 19.1 | 35.8
RPMI 5 mM glucose + 10% dialyzed FBS, 0.569 µM | 22.9 | 22.4 | 35.2
RPMI 5 mM glucose + 10% dialyzed FBS, 1.71 µM | 22.2 | 20 | 41.7
RPMI 5 mM glucose + 10% dialyzed FBS, 5.12 µM | 13.6 | 17.3 | 40.6
RPMI 5 mM glucose + 10% dialyzed FBS, 15.4 µM | 11.6 | 9.97 | 33.4
RPMI 5 mM glucose + 10% dialyzed FBS, 46.1 µM | 16.6 | 7.04 | 42.7
